Laboratory results: patent US20240315991A1, “USES OF HNF4 ALPHA AGONISTS” (Sanford Burnham Prebys Medical Discovery Institute, priority 2023, published 2024)

Columns and labels:
PPARGC1A mRNA [1] = test: RT-PCR of mouse liver, PPARGC1A; type: in vivo; conditions: HFD+NCT vs HFD, FIGS. 4A-4C
Method: (§1) NCT oral administration. Four-week-old male C57BL/6J (JAX cat #000664) mice were purchased from Jackson laboratory and were maintained in a 12 h light/dark cycle throughout the experiment. Prior to the experiments, mice were acclimated for 2 weeks. Six-week-old mice with similar body weights were randomized to a normal diet (NC), a high fat diet (HFD) (Research Diets, cat #D12492 60 kcal % fat) or HFD containing 4000 ppm NCT (HFD+NCT) (Research Diets, 60 kcal % fat+4000 ppm NCT), which was calculated to provide approximately 400 mg/kg/d NCT. HFD chow containing NCT was made with gray dye to distinguish it from regular HFD chow that had green dye. Mice for each treatment group were placed in separate cages. Equal amounts of fresh chow were provided every week to all mice. Body weight gain and food intake were measured every week for 10 weeks. After 10 weeks of chow treatment, mice were sacrificed for analysis. […]
(§2) RT-PCR. […] Quantitative real time PCR (RT-PCR) analysis was performed using SYBR® Select Master Mix (Applied Biosystems) and an ABI 7900HT thermal cycler (Applied Biosystems, Thermo Fisher Scientific). Ct values were normalized to 18s rRNA and are expressed as fold change over samples from mice fed NC or cultured human hepatocytes without NCT.

PPARGC1A(PGC1a) = test: Western blotting of liver, PPARGC1A(PGC1a); type: in vivo, mouse; conditions: HFD+NCT vs HFD, FIGS. 4A-4C
Method: (§3) NCT oral administration. Four-week-old male C57BL/6J (JAX cat #000664) mice were purchased from Jackson laboratory and were maintained in a 12 h light/dark cycle throughout the experiment. Prior to the experiments, mice were acclimated for 2 weeks. Six-week-old mice with similar body weights were randomized to a normal diet (NC), a high fat diet (HFD) (Research Diets, cat #D12492 60 kcal % fat) or HFD containing 4000 ppm NCT (HFD+NCT) (Research Diets, 60 kcal % fat+4000 ppm NCT), which was calculated to provide approximately 400 mg/kg/d NCT. HFD chow containing NCT was made with gray dye to distinguish it from regular HFD chow that had green dye. Mice for each treatment group were placed in separate cages. Equal amounts of fresh chow were provided every week to all mice. Body weight gain and food intake were measured every week for 10 weeks. After 10 weeks of chow treatment, mice were sacrificed for analysis. All animal experiments were approved by the Institutional Animal Care and Use Committee (IACUC) of the Sanford Burnham Prebys Medical Discovery Institute in accordance with national regulations. Sample size was chosen based on the prior study of NCT delivered by IP injection.
(§4) Western blotting. Mouse liver extracts were prepared by incubation in RIPA buffer (Invitrogen) containing protease inhibitors (Calbiochem, SanDiego, CA). Protein was quantified by BCA assay (Thermo Scientific). […]

SDHA mRNA = test: RT-PCR of primary human hepatocytes, SDHA; type: cell-based; conditions: HEP-fat media, NCT 5, 15, and 40 μM, FIGS. 3I and 3J
Method: (§5) Primary human hepatocytes. Experiments with primary human hepatocytes were performed by CN-Bio (Cambridge, UK). Briefly, primary human hepatocytes (PHHs), human Kupffer cells (HKs) and human stellate cells (HSCs) were seeded onto CN-Bio's PhysioMimix LC12 MPS culture plates at 6×10^5 cells for PHHs and 6×10^4 cells for HKs and HSCs in 1.6 ml of CN-Bio's HEP-lean media with 5% FCS. Throughout the experiment the cells were maintained at a flow rate of 1 μl/s. After 24 hours (Day 1) of seeding, the media was changed to HEP-lean media and the cells were incubated until day 4 to allow the cells to form microtissues. At day 4 post seeding, media was changed to HEP-fat media and treated with DMSO or NCT (5, 15, and 40 μM). Media was replaced on days 6 and 8. Cells were harvested on day 10 for RNA extraction and culture media was collected for ELISA analysis.
as §2

hepatic cytochrome C = test: Western blotting of liver, cytochrome C; type: in vivo, mouse; conditions: HFD+NCT vs HFD, FIGS. 3D-3F
Method: as §3, §4

Sirt3 mRNA = test: RT-PCR of mouse liver, Sirtuin3; type: in vivo; conditions: HFD+NCT vs HFD, FIG. 4E
Method: as §1, §2

PPARGC1A mRNA [2] = test: RT-PCR of primary human hepatocytes, PPARGC1A; type: cell-based; conditions: HEP-fat media, NCT 5, 15, and 40 μM, FIG. 4F
Method: as §5, §2

[3] = cited from earlier work
ILIβ mRNA = test: RT-PCR of mouse liver, ILIβ; type: in vivo; conditions: HFD+NCT vs HFD, FIG. 5C
Method: as §1, §2

cytochrome C mRNA = test: RT-PCR of primary human hepatocytes, cytochrome C; type: cell-based; conditions: 0 μM vs. each concentration of NCT, FIG. 3I
Method: as §5, §2

citrate synthase = test: Citrate synthase activity in liver homogenate; type: in vivo, mouse; conditions: HFD+NCT vs HFD, FIGS. 3A-3C
Method: as §3, with “Sample size was chosen based on the prior study of NCT delivered by IP injection.” left out
Citrate synthase activity. Citrate synthase activity in liver homogenate was measured according to manufacturer's instructions using a calorimetry based MitoCheck Citrate Synthase Activity Assay Kit (Cat #701040, Cayman Chemicals, USA).

T6PNE cells = test: Nitric oxide assay in T6PNE cells treated with palmitate; type: cell-based; conditions: 0.12 mM palmitate plus 15 μM NCT, 3 days, FIG. 5H
Method: T6PNE cells were maintained in RPMI (5.5 mM glucose, Corning) supplemented with 10% fetal bovine serum (FBS, Sigma-Aldrich) and 1% penicillin-streptomycin (pen-strep, Gibco) in 5% CO2 at 37° C. Cells were treated with […] palmitate plus 0 or 15 μM NCT for 3 days in 10 cm plates and harvested with 500 μL PBS. For tissue specimens, snap frozen mouse liver was weighed and homogenized with PBS. NO was measured with the QuantiChrom Nitric Oxide Assay kit (D2NO-100, BioAssay Systems). Homogenized samples (150 μL) were processed for deproteination with 8 μL ZnSO4 and 8 μL NaOH. For normalization, an aliquot of samples from T6PNE cells was taken for BCA assay before deproteination. Samples and standard from kit were incubated with reagents for 20 min at 60° C. and measured OD 540 nm.
150 mM Palmitate (Sigma-Aldrich) was prepared in 50% ethanol and precomplexed with 15% fatty acid-free BSA (Research Organics, Cleveland, OH, USA) in a 37° C. water shaker. BSA-precomplexed palmitate was used as a 12 mM stock solution for all assays with a final concentration of 0.12 mM palmitate in cell culture medium.

## O=C(/C=C/c1ccc(O)c(O)c1)NCCc1ccc(O)cc1 [NCT, N-trans caffeoyltyramine]
PPARGC1A mRNA [1]
  PPARGC1A(PGC1a) mRNA level in mouse liver: increase
PPARGC1A(PGC1a)
  PPARGC1A(PGC1a) protein level in mouse liver: increase
SDHA mRNA
  SDHA mRNA in human hepatocytes: increase
Hepatic cytochrome C
  hepatic cytochrome C protein level: reverse the depression
Sirt3 mRNA
  Sirt3 mRNA in mouse liver: reverse the depression
PPARGC1A mRNA [2]
  PPARGC1A(PGC1a) mRNA in primary human hepatocytes: increase
[3]
  oral bioavailability: poor
ILIβ mRNA
  expression level of ILIβ in mouse liver: non-significant
ILIβ mRNA; listed as Compound A
  expression level of ILIβ in mouse liver: not affect
Cytochrome C mRNA
  cytochrome C mRNA levels in primary human hepatocytes: non-significant
Citrate synthase
  citrate synthase level in liver: reverse the depression
T6PNE cells
  level of NO in cultured cells treated with palmitate: decrease
